Source: the NIST ThermoML archive (doi:10.1016/j.jct.2018.11.003)

Assay: cn = amount concentration of the nth substance listed, in mol/dm3
Conditions: 298.15 K, 101.3 kPa, Liquid, Taylor dispersion method

Row | binary diffusion coefficient (c1 = 0.002) | binary diffusion coefficient (c1 = 0.00499) | binary diffusion coefficient (c1 = 0.00997) | binary diffusion coefficient (c1 = 0.05) | binary diffusion coefficient (c1 = 0.0002) | binary diffusion coefficient (c1 = 0.000402) | binary diffusion coefficient (c1 = 0.000603) | binary diffusion coefficient (c1 = 0.000801) | SMILES
1 | 8.48e-10 m2/s | 7.9e-10 m2/s | 7.6e-10 m2/s | 7.19e-10 m2/s |  |  |  |  | O=C(O)CC(O)(CC(=O)O)C(=O)O [citric acid] + O
2 |  |  |  |  | 6.18e-10 m2/s | 6.18e-10 m2/s | 6.16e-10 m2/s | 6.11e-10 m2/s | O=C([O-])CC(O)(CC(=O)[O-])C(=O)[O-].O=C([O-])CC(O)(CC(=O)[O-])C(=O)[O-].[Ca+2].[Ca+2].[Ca+2] [calcium citrate] + O
